Measurements from publication PMC7224190, “Pharmacological inhibition of PRMT7 links arginine monomethylation to the cellular stress response” (Nature Communications, 2020).

How the values were obtained:
Assay in all cases: biochemical
Parameters in all cases: radiometric methyltransferase selectivity assay with tritiated SAM, per cent activity
Conditions in all cases: read-out: % of control remaining
G9A = molecular target: T1, G9A (Homo sapiens, UniProt Q96KQ7)
T1 construct: gene EHMT2
T1 sequence (Q96KQ7 1-1210): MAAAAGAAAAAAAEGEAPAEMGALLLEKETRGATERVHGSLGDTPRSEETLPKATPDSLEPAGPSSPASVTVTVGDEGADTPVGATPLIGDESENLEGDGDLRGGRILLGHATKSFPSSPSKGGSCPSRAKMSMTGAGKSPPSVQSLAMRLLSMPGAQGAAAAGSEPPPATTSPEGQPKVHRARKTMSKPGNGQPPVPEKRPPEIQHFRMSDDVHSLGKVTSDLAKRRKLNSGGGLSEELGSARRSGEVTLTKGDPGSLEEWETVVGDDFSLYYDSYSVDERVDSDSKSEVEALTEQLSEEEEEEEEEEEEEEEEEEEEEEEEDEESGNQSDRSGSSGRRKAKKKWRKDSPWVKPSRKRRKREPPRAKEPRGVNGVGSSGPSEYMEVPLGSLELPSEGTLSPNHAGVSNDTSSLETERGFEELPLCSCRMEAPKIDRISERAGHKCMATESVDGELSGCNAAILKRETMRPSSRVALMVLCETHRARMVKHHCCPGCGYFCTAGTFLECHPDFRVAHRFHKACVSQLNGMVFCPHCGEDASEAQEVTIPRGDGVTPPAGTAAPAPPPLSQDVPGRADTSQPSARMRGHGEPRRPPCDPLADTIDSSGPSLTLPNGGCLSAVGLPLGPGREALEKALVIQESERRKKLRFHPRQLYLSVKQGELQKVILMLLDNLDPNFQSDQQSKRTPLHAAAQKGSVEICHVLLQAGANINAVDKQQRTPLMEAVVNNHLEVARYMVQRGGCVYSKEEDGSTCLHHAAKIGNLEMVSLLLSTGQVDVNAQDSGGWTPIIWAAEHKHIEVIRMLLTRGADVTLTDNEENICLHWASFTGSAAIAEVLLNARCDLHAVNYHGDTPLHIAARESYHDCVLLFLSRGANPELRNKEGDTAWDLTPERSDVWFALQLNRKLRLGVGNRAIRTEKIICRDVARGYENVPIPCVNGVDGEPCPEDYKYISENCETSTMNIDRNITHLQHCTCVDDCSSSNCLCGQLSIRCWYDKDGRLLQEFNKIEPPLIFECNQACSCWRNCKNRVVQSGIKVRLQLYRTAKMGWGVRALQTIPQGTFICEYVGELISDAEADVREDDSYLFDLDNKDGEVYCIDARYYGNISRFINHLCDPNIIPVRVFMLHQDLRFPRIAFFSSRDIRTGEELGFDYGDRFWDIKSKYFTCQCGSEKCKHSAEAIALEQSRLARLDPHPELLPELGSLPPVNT
Protocol: (§1) The methyltransferase selectivity was assessed at two compound concentrations of 1 and 10 μM by radiometric assays using tritiated-SAM. For methyltransferases: MLL1, MLL3, EZH1 (PRC2), and EZH2 (PRC2), G9a, GLP, SUV39H1, SUV39H2, SUV420H1, SUV420H2, SETD2, SETD8, SETDB1, SETD7, PRMT1, PRMT3, PRMT4, PRMT5/ MEP50 complex, PRMT6, PRMT7, PRMT8, PRMT9, PRDM9, SMYD2, SMYD3, DNMT1, and BCDIN3D the incorporation of a tritium-labeled methyl group into biotinylated substrate was monitored using scintillation proximity assay (SPA). Briefly, a 10 μL reaction containing ^3H-SAM and substrate at concentrations close to the apparent Km values for each enzyme (balanced conditions) was prepared. The reactions were quenched with 10 μL of 7.5 M guanidine hydrochloride; 180 μL of 20 mM Tris buffer (pH 8.0) were added, and the mixture was transferred to a 96-well FlashPlate and incubated for 1 h. The counts per minute (CPM) was measured on a TopCount plate reader. The CPM in the absence of compound or enzyme was defined as 100% activity and background (0%), respectively, for each dataset[74]–[76]. Selectivity of SGC8158 against 342 kinases was evaluated in a kinase panel TR-FRET assay at 1 and 0.1 μM compound in duplicates as described before. Briefly, tagged kinases were incubated with compound and staurosporine-based fluorescent probe where the binding was detected using Tb conjugated anti-tag antibody energy transfer to the probe. Excitation wavelength was 337 nm and fluorescent emission signal was measured for Tb (486 nm) and fluorescent probe (BODIPY, 515 nm). Specific and non-specific binding was determined in the absence and presence of unlabeled staurosporine.

NSD1 = NSD1 (Homo sapiens, UniProt Q96L73)
Protocol: as §1

SMYD2 = SMYD2 (Homo sapiens, UniProt Q9NRG4)
Protocol: as §1

SMYD3 = molecular target: T2, SMYD3 (Homo sapiens, UniProt Q9H7B4)
T2 sequence (Q9H7B4 1-428): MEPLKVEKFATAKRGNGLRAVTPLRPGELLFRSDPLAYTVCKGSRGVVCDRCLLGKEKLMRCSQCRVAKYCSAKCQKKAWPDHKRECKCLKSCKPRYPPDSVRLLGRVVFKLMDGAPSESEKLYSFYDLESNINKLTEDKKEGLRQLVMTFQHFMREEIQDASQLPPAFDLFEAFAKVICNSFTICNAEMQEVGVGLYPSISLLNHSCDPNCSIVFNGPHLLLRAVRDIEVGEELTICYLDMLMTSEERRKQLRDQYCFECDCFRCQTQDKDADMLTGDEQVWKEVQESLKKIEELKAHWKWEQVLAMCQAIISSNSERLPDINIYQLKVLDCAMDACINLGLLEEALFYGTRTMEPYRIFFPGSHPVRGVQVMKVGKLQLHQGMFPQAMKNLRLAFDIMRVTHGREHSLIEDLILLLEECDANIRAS
Protocol: as §1

NSD1, sequence (Q96L73 whole entry): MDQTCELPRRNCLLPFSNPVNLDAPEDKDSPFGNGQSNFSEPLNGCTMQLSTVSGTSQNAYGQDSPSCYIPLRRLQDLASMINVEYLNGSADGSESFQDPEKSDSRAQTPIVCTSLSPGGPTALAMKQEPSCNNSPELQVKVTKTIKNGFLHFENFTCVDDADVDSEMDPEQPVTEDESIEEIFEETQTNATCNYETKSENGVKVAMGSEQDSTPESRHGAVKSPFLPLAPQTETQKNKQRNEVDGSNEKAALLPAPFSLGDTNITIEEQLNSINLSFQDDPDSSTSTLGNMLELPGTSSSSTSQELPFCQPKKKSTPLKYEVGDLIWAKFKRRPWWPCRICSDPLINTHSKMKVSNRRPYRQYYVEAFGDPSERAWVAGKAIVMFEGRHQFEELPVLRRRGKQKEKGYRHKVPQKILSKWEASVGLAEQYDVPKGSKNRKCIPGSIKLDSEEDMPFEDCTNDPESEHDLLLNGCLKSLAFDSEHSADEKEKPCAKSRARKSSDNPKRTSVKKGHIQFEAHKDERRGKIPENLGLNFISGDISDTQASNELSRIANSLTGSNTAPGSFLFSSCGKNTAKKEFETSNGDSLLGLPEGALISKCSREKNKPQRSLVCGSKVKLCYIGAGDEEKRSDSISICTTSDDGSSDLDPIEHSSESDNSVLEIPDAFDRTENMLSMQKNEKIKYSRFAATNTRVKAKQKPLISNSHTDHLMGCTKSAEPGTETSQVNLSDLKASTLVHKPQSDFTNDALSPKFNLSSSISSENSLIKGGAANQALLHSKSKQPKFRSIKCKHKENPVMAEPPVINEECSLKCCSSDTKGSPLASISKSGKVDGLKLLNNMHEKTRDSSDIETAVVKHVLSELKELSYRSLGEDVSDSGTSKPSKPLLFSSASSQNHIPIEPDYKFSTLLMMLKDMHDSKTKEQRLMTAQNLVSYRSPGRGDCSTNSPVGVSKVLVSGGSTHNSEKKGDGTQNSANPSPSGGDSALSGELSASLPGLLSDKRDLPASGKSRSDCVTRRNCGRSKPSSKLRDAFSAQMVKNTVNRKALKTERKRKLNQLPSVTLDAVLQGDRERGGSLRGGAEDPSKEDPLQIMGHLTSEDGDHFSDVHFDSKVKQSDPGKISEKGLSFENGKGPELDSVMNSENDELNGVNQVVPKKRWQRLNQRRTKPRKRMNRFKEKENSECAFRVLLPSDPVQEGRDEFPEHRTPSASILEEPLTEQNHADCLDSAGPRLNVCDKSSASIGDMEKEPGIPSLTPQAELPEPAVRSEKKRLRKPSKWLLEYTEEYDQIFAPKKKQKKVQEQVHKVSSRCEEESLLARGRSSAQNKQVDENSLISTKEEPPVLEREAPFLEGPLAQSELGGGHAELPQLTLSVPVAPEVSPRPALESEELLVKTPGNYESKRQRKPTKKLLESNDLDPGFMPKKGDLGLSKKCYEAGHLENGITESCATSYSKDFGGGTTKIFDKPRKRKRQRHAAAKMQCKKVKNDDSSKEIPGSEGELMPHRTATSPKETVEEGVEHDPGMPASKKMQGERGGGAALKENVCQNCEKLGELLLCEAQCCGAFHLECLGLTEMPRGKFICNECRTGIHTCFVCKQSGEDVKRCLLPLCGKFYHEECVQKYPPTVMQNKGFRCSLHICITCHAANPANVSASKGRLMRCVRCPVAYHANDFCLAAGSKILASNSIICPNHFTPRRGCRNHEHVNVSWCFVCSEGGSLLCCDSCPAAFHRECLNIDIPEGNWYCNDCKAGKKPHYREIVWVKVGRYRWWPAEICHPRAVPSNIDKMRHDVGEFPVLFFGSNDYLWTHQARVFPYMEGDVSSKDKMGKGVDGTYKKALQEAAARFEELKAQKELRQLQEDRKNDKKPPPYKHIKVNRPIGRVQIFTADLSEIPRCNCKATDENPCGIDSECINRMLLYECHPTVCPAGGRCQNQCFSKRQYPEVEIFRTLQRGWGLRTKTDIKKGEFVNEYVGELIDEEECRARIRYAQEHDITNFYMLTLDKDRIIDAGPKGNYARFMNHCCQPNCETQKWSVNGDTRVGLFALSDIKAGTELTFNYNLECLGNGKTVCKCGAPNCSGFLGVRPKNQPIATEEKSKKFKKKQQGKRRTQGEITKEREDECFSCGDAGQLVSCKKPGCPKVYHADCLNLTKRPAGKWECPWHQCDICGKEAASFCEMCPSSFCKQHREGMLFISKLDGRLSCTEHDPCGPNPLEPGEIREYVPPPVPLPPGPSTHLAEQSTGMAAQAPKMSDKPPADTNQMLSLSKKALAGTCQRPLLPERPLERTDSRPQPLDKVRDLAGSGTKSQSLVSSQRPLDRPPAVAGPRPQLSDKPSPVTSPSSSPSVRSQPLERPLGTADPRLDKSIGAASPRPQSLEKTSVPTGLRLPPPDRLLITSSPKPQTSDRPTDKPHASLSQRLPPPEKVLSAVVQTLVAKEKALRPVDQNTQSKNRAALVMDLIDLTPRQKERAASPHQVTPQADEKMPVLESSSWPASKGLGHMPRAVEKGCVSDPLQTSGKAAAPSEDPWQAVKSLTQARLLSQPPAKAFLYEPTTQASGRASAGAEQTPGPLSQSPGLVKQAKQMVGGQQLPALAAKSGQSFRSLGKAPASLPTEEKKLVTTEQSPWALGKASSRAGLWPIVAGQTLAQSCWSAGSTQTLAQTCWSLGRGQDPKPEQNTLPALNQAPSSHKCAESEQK
SMYD2, sequence (Q9NRG4 whole entry): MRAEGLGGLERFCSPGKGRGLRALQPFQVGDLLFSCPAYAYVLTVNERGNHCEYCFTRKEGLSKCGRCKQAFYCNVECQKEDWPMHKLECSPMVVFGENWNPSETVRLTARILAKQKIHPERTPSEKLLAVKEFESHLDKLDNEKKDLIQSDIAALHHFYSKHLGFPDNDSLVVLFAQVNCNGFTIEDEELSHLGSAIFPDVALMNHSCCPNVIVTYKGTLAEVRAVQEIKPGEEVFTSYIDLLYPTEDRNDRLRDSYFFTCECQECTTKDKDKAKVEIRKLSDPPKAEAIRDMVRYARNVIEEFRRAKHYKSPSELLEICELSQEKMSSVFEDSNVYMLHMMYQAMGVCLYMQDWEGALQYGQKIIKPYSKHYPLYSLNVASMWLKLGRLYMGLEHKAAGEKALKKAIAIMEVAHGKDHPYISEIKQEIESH

SMILES | remaining activity at 1 µM (G9A) | remaining activity at 10 µM (G9A) | remaining activity at 1 µM (NSD1) | remaining activity at 10 µM (NSD1) | remaining activity at 1 µM (SMYD2) | remaining activity at 10 µM (SMYD2) | remaining activity at 1 µM (SMYD3) | remaining activity at 10 µM (SMYD3)
Nc1ncnc2c1ncn2[C@@H]1O[C@H](CSCCCCNCc2cccc(-c3ccc(Cl)cc3)c2)[C@@H](O)[C@H]1O [SGC8158] | 100% | 99% | 104% | 99% | 101% | 84% | 102% | 104%
CC1(C)O[C@@H]2[C@H](O1)[C@@H](CSCCCCNCc1cccc(-c3ccc(Cl)cc3)c1)O[C@H]2n1cnc2c(N)ncnc21 [SGC8158N] | 99% | 98% | 99% | 98% | 105% | 104% | 100% | 102%
